Measured values taken from US12187709B2 (Genentech, Inc., priority 2021, dated 2025).

Experiments:
Cbl-b = Cbl-b (Homo sapiens (Human), UniProt Q13191); assay: Cbl-b LCK Ub TR-FRET assay (Cbl-b Lck HTRF); type: biochemical; settings: for IC50: Cbl-b LCK Ub TR-FRET; for fold-selectivity (Cbl-b over C-cbl): ratio C-cbl Lck HTRF IC50 / Cbl-b Lck HTRF IC50
How it was run: (§1)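 Signal is read once the detection mix has stood 20 min at ambient temperature. Curves are anchored by DMSO as maximum and by omission of LCK as minimum.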

c-Cbl = c-Cbl (Homo sapiens (Human), UniProt P22681); assay: C-Cbl LCK Ub TR-FRET assay (C-cbl Lck HTRF); type: biochemical
Chain of c-Cbl (P22681 47-435): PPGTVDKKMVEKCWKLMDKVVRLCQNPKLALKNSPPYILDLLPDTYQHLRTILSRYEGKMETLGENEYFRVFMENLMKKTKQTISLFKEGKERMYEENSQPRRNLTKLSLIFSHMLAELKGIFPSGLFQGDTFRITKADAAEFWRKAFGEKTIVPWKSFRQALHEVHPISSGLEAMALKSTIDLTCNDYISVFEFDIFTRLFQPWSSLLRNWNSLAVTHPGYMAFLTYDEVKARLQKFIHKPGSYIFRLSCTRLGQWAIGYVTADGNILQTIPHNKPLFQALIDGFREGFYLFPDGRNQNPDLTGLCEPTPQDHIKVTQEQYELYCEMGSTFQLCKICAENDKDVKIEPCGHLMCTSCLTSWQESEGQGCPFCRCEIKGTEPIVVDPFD
How it was run: as §1

Chain of Cbl-b (Q13191 40-426): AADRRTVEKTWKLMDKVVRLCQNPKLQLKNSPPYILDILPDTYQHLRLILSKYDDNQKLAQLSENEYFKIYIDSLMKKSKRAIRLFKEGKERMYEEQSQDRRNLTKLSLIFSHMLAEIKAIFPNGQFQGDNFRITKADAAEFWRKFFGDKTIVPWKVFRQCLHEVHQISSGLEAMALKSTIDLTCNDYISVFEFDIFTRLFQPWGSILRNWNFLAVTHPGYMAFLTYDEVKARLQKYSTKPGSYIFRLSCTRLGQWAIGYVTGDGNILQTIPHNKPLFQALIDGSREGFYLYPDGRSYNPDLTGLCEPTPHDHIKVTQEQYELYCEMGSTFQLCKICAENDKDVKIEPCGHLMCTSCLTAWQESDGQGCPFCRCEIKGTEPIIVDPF

IC50 (Cbl-b) [µM] | fold-selectivity (Cbl-b over C-cbl) (Cbl-b) [x] | IC50 (c-Cbl) [µM] | SMILES
≥ 20 | 1.0 | 20 | Cn1cnnc1[C@H](CC1(C)COC1)c1cccc(N2Cc3c(cc(CNC4(C)CCC4)cc3C(F)(F)F)C2=O)c1 [Compound 254, (R)-2-(3-(1-(4-methyl-4H-1,2,4-triazol-3-yl)-2-(3-methyloxetan-3-yl)ethyl)phenyl)-6-(((1-methylcyclobutyl)amino)methyl)-4-(trifluoromethyl)isoindolin-1-one]
0.76 | 1.3 | 0.99 | Cn1cnnc1[C@@H](CC1(C)COC1)c1cccc(N2Cc3c(cc(CNC4(C)CCC4)cc3C(F)(F)F)C2=O)c1 [Compound 255, (S)-2-(3-(1-(4-methyl-4H-1,2,4-triazol-3-yl)-2-(3-methyloxetan-3-yl)ethyl)phenyl)-6-(((1-methylcyclobutyl)amino)methyl)-4-(trifluoromethyl)isoindolin-1-one]
1.7 | 1.6 | 2.7 | Cn1cnnc1[C@H](CC1CCC1)c1cccc(N2Cc3c(cc(CNC4(C)CCC4)cc3C(F)(F)F)C2=O)c1 [Compound 268, (R)-2-(3-(2-cyclobutyl-1-(4-methyl-4H-1,2,4-triazol-3-yl)ethyl)phenyl)-6-(((1-methylcyclobutyl)amino)methyl)-4-(trifluoromethyl)isoindolin-1-one]
0.076 | 4.0 | 0.3 | Cn1cnnc1[C@@H](CC1CCC1)c1cccc(N2Cc3c(cc(CNC4(C)CCC4)cc3C(F)(F)F)C2=O)c1 [Compound 269, (S)-2-(3-(2-cyclobutyl-1-(4-methyl-4H-1,2,4-triazol-3-yl)ethyl)phenyl)-6-(((1-methylcyclobutyl)amino)methyl)-4-(trifluoromethyl)isoindolin-1-one]
≥ 20 | 1.0 | 20 | Cn1cnnc1[C@H](C[C@@H]1CCOC1)c1cccc(N2Cc3c(cc(CNC4(C)CCC4)cc3C(F)(F)F)C2=O)c1 [Compound 275, 2-(3-((R)-1-(4-methyl-4H-1,2,4-triazol-3-yl)-2-((R)-tetrahydrofuran-3-yl)ethyl)phenyl)-6-(((1-methylcyclobutyl)amino)methyl)-4-(trifluoromethyl)isoindolin-1-one]
≥ 20 | 1.0 | 20 | Cn1cnnc1[C@@H](C[C@@H]1CCOC1)c1cccc(N2Cc3c(cc(CNC4(C)CCC4)cc3C(F)(F)F)C2=O)c1 [Compound 276, 2-(3-((S)-1-(4-methyl-4H-1,2,4-triazol-3-yl)-2-((R)-tetrahydrofuran-3-yl)ethyl)phenyl)-6-(((1-methylcyclobutyl)amino)methyl)-4-(trifluoromethyl)isoindolin-1-one]
0.51 | 7.3 | 3.7 | C[C@@H](NC1(C)CCC1)c1cc2c(c(C(F)(F)F)c1)CN(c1cccc(C(c3nncn3C)C3COC3)c1)C2=O (stereo partly drawn) [Compound 284, 2-(3-((4-methyl-4H-1,2,4-triazol-3-yl)(oxetan-3-yl)methyl)phenyl)-6-((R)-1-((1-methylcyclobutyl)amino)ethyl)-4-(trifluoromethyl)isoindolin-1-one]
≥ 20 | 1.0 | 20 | Cn1cnnc1[C@H](CC1CCS(=O)(=O)CC1)c1cccc(N2Cc3c(cc(CNC4(C)CCC4)cc3C(F)(F)F)C2=O)c1 [Compound 286, (R)-2-(3-(2-(1,1-dioxidotetrahydro-2H-thiopyran-4-yl)-1-(4-methyl-4H-1,2,4-triazol-3-yl)ethyl)phenyl)-6-(((1-methylcyclobutyl)amino)methyl)-4-(trifluoromethyl)isoindolin-1-one]
≥ 20 | 1.0 | 20 | Cn1cnnc1[C@@H](CC1CCS(=O)(=O)CC1)c1cccc(N2Cc3c(cc(CNC4(C)CCC4)cc3C(F)(F)F)C2=O)c1 [Compound 287, (S)-2-(3-(2-(1,1-dioxidotetrahydro-2H-thiopyran-4-yl)-1-(4-methyl-4H-1,2,4-triazol-3-yl)ethyl)phenyl)-6-(((1-methylcyclobutyl)amino)methyl)-4-(trifluoromethyl)isoindolin-1-one]
13 | 1.5 | 20 | Cn1cnnc1[C@@H](c1cccc(N2Cc3c(cc(CNC4(C)CCC4)cc3C(F)(F)F)C2=O)c1)C1CCOCC1 [Compound 290, (R)-2-(3-((4-methyl-4H-1,2,4-triazol-3-yl)(tetrahydro-2H-pyran-4-yl)methyl)phenyl)-6-(((1-methylcyclobutyl)amino)methyl)-4-(trifluoromethyl)isoindolin-1-one]
8 | 2.0 | 16 | Cn1cnnc1[C@@H](C[C@@H]1COCCO1)c1cccc(N2Cc3c(cc(CNC4(C)CCC4)cc3C(F)(F)F)C2=O)c1 [Compound 296, 2-(3-((S)-2-((R)-1,4-dioxan-2-yl)-1-(4-methyl-4H-1,2,4-triazol-3-yl)ethyl)phenyl)-6-(((1-methylcyclobutyl)amino)methyl)-4-(trifluoromethyl)isoindolin-1-one]
2.5 | 1.5 | 3.8 | Cn1cnnc1[C@@H](c1cccc(N2Cc3c(cc(CNC4(C)CCC4)cc3C(F)(F)F)C2=O)c1)C1CCS(=O)(=O)CC1 [Compound 299, (R)-2-(3-((1,1-dioxidotetrahydro-2H-thiopyran-4-yl)(4-methyl-4H-1,2,4-triazol-3-yl)methyl)phenyl)-6-(((1-methylcyclobutyl)amino)methyl)-4-(trifluoromethyl)isoindolin-1-one]
8.7 | 2.0 | 17 | Cn1cnnc1[C@H](c1cccc(N2Cc3c(cc(CNC4(C)CCC4)cc3C(F)(F)F)C2=O)c1)C1CCS(=O)(=O)CC1 [Compound 300, (S)-2-(3-((1,1-dioxidotetrahydro-2H-thiopyran-4-yl)(4-methyl-4H-1,2,4-triazol-3-yl)methyl)phenyl)-6-(((1-methylcyclobutyl)amino)methyl)-4-(trifluoromethyl)isoindolin-1-one]
7.8 | 2.6 | 20 | Cn1cnnc1[C@H](c1cccc(N2Cc3c(cc(CNC4(C)CCC4)cc3C(F)F)C2=O)c1)C1COC1 [Compound 304, (S)-4-(difluoromethyl)-2-(3-((4-methyl-4H-1,2,4-triazol-3-yl)(oxetan-3-yl)methyl)phenyl)-6-(((1-methylcyclobutyl)amino)methyl)isoindolin-1-one]
≥ 20 | 1.0 | 20 | Cn1cnnc1[C@](C)(O)c1cccc(N2Cc3c(cc(CNC4(C)CCC4)cc3C(F)(F)F)C2=O)c1 [Compound 305, (R)-2-(3-(1-hydroxy-1-(4-methyl-4H-1,2,4-triazol-3-yl)ethyl)phenyl)-6-(((1-methylcyclobutyl)amino)methyl)-4-(trifluoromethyl)isoindolin-1-one]
